Test results reported in ChEMBL document CHEMBL1201862, “PubChem BioAssay data set” (2004).
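Each compound was tested at five concentrations against cells in 96-well plates for 48 hours. GI50 marks 50% less growth.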 The source made the active and inactive calls. Rule as the data show it: active = GI50 up to about 1.1 µM and inactive = higher.

Columns and labels:
Test in all cases: NCI-60 cell line screen, 48 h
786-0 = test system: 786-0
A498 = test system: A498
A549 = test system: A549
ACHN = test system: ACHN
BT-549 = test system: BT-549
CAKI-1 = test system: CAKI-1
CCRF-CEM = test system: CCRF-CEM
COLO 205 = test system: COLO 205
DU-145 = test system: DU-145
EKVX = test system: EKVX
HCC 2998 = test system: HCC 2998
HCT-116 = test system: HCT-116
HCT-15 = test system: HCT-15
HL-60 = test system: HL-60
HOP-62 = test system: HOP-62
HOP-92 = test system: HOP-92
HT-29 = test system: HT-29
Hs-578T = test system: Hs-578T
IGROV-1 = test system: IGROV-1
K562 = test system: K562
KM12 = test system: KM12
LOX IMVI = test system: LOX IMVI
M14 = test system: M14
MCF7 = test system: MCF7
MDA-MB-231 = test system: MDA-MB-231
MDA-MB-435 = test system: MDA-MB-435
MDA-N = test system: MDA-N
MOLT-4 = test system: MOLT-4
Malme-3M = test system: Malme-3M
NCI-H226 = test system: NCI-H226
NCI-H23 = test system: NCI-H23
NCI-H460 = test system: NCI-H460
NCI-H522 = test system: NCI-H522
NCI/ADR-RES = test system: NCI/ADR-RES
OVCAR-3 = test system: OVCAR-3
OVCAR-4 = test system: OVCAR-4
OVCAR-5 = test system: OVCAR-5
OVCAR-8 = test system: OVCAR-8
PC-3 = test system: PC-3
RPMI-8226 = test system: RPMI-8226
RXF 393 = test system: RXF 393
SF-268 = test system: SF-268
SF-295 = test system: SF-295
SF-539 = test system: SF-539
SK-MEL-28 = test system: SK-MEL-28
SK-MEL-5 = test system: SK-MEL-5
SK-OV-3 = test system: SK-OV-3
SN12C = test system: SN12C
SNB-19 = test system: SNB-19
SNB-75 = test system: SNB-75
SR = test system: SR
SW-620 = test system: SW-620
T47D = test system: T47D
TK-10 = test system: TK-10
U-251 = test system: U-251
UACC-257 = test system: UACC-257
UACC-62 = test system: UACC-62
UO-31 = test system: UO-31
SK-MEL-2 = test system: SK-MEL-2

O=C(Nc1ccc(Cl)cc1)c1cc(S(=O)(=O)Nc2n[nH]c(Nc3ccc4ccccc4c3)n2)c(SSc2cc(Cl)c(C(=O)Nc3ccc(Cl)cc3)cc2S(=O)(=O)Nc2n[nH]c(Nc3ccc4ccccc4c3)n2)cc1Cl
GI50 (786-0): 31.2 µM (inactive) | GI50 (A498): 23.6 µM (inactive) | GI50 (A549): 41.7 µM (inactive) | GI50 (ACHN): 21.6 µM (inactive) | GI50 (BT-549): 24.4 µM (inactive) | GI50 (CAKI-1): 19.1 µM (inactive) | GI50 (CCRF-CEM): 20.5 µM (inactive) | GI50 (COLO 205): 18.4 µM (inactive) | GI50 (DU-145): 24.4 µM (inactive) | GI50 (EKVX): 42.9 µM (inactive) | GI50 (HCC 2998): 17.9 µM (inactive) | GI50 (HCT-116): 18.6 µM (inactive) | GI50 (HCT-15): 21.7 µM | GI50 (HL-60): 25.1 µM (inactive) | GI50 (HOP-62): 27.7 µM (inactive) | GI50 (HOP-92): 28.2 µM (inactive) | GI50 (HT-29): 20.6 µM (inactive) | GI50 (Hs-578T): 31.8 µM (inactive) | GI50 (IGROV-1): 21.7 µM (inactive) | GI50 (K562): 20.5 µM (inactive) | GI50 (KM12): 20 µM (inactive) | GI50 (LOX IMVI): 17.5 µM (inactive) | GI50 (M14): 24.2 µM (inactive) | GI50 (MCF7): 25.8 µM (inactive) | GI50 (MDA-MB-231): 18.6 µM (inactive) | GI50 (MDA-MB-435): 30.3 µM (inactive) | GI50 (MDA-N): 32.4 µM (inactive) | GI50 (MOLT-4): 19.1 µM (inactive) | GI50 (Malme-3M): 21.6 µM (inactive) | GI50 (NCI-H226): 21.7 µM (inactive) | GI50 (NCI-H23): 24.5 µM (inactive) | GI50 (NCI-H460): 26.7 µM (inactive) | GI50 (NCI-H522): 22.6 µM (inactive) | GI50 (NCI/ADR-RES): 30.8 µM (inactive) | GI50 (OVCAR-3): 26.2 µM (inactive) | GI50 (OVCAR-4): 28 µM (inactive) | GI50 (OVCAR-5): 20.5 µM (inactive) | GI50 (OVCAR-8): 27 µM (inactive) | GI50 (PC-3): 24.4 µM (inactive) | GI50 (RPMI-8226): 22 µM (inactive) | GI50 (RXF 393): 32.5 µM (inactive) | GI50 (SF-268): 41.4 µM (inactive) | GI50 (SF-295): 20.5 µM (inactive) | GI50 (SF-539): 23.6 µM (inactive) | GI50 (SK-MEL-28): 21.8 µM (inactive) | GI50 (SK-MEL-5): 21.3 µM (inactive) | GI50 (SK-OV-3): 33.5 µM (inactive) | GI50 (SN12C): 22.5 µM (inactive) | GI50 (SNB-19): 21.3 µM (inactive) | GI50 (SNB-75): 23 µM (inactive) | GI50 (SR): 23.7 µM (inactive) | GI50 (SW-620): 21.3 µM (inactive) | GI50 (T47D): 3.2 µM (inactive) | GI50 (TK-10): 27.3 µM (inactive) | GI50 (U-251): 23.7 µM (inactive) | GI50 (UACC-257): 33.1 µM (inactive) | GI50 (UACC-62): 22.9 µM (inactive) | GI50 (UO-31): 24.2 µM (inactive)

CNc1cc2oc(=O)cc(C)c2cc1C
GI50 (786-0): > 100 µM (inactive) | GI50 (A498): 43.2 µM (inactive) | GI50 (A549): > 100 µM (inactive) | GI50 (ACHN): > 100 µM (inactive) | GI50 (BT-549): 15.4 µM (inactive) | GI50 (CAKI-1): > 100 µM (inactive) | GI50 (CCRF-CEM): > 100 µM (inactive) | GI50 (COLO 205): > 100 µM (inactive) | GI50 (DU-145): > 100 µM (inactive) | GI50 (EKVX): 59.6 µM (inactive) | GI50 (HCC 2998): > 100 µM (inactive) | GI50 (HCT-116): > 100 µM (inactive) | GI50 (HCT-15): > 100 µM | GI50 (HL-60): 25.4 µM (inactive) | GI50 (HOP-62): > 100 µM (inactive) | GI50 (HOP-92): 89.3 µM (inactive) | GI50 (HT-29): > 100 µM (inactive) | GI50 (Hs-578T): 79.1 µM (inactive) | GI50 (IGROV-1): > 100 µM (inactive) | GI50 (K562): > 100 µM (inactive) | GI50 (LOX IMVI): > 100 µM (inactive) | GI50 (M14): > 100 µM (inactive) | GI50 (MCF7): 96.8 µM (inactive) | GI50 (MDA-MB-231): > 100 µM (inactive) | GI50 (MDA-MB-435): 86.3 µM (inactive) | GI50 (MDA-N): > 100 µM (inactive) | GI50 (MOLT-4): > 100 µM (inactive) | GI50 (Malme-3M): > 100 µM (inactive) | GI50 (NCI-H226): > 100 µM (inactive) | GI50 (NCI-H23): > 100 µM (inactive) | GI50 (NCI-H460): > 100 µM (inactive) | GI50 (NCI-H522): > 100 µM (inactive) | GI50 (NCI/ADR-RES): > 100 µM (inactive) | GI50 (OVCAR-3): > 100 µM (inactive) | GI50 (OVCAR-4): > 100 µM (inactive) | GI50 (OVCAR-5): > 100 µM (inactive) | GI50 (OVCAR-8): > 100 µM (inactive) | GI50 (PC-3): > 100 µM (inactive) | GI50 (RPMI-8226): > 100 µM (inactive) | GI50 (RXF 393): > 100 µM (inactive) | GI50 (SF-268): > 100 µM (inactive) | GI50 (SF-295): > 100 µM (inactive) | GI50 (SF-539): > 100 µM (inactive) | GI50 (SK-MEL-28): > 100 µM (inactive) | GI50 (SK-MEL-2): > 100 µM (inactive) | GI50 (SK-MEL-5): 30.1 µM (inactive) | GI50 (SN12C): > 100 µM (inactive) | GI50 (SNB-19): > 100 µM (inactive) | GI50 (SNB-75): 85.3 µM (inactive) | GI50 (SR): 36.4 µM (inactive) | GI50 (SW-620): > 100 µM (inactive) | GI50 (T47D): > 100 µM (inactive) | GI50 (TK-10): 86.3 µM (inactive) | GI50 (U-251): > 100 µM (inactive) | GI50 (UACC-257): > 100 µM (inactive) | GI50 (UACC-62): 72.6 µM (inactive)

OC1(c2ccccc2)c2ccccc2N=C2NCCN21 (stereo not given)
GI50 (786-0): 72.9 µM (inactive) | GI50 (A498): 86.5 µM (inactive) | GI50 (A549): > 100 µM (inactive) | GI50 (ACHN): > 100 µM (inactive) | GI50 (BT-549): > 100 µM (inactive) | GI50 (CAKI-1): 45.4 µM (inactive) | GI50 (COLO 205): 32.9 µM (inactive) | GI50 (DU-145): > 100 µM (inactive) | GI50 (EKVX): > 100 µM (inactive) | GI50 (HCC 2998): 16.3 µM (inactive) | GI50 (HCT-116): 83.9 µM (inactive) | GI50 (HCT-15): 93.1 µM | GI50 (HL-60): 44.1 µM (inactive) | GI50 (HOP-62): > 100 µM (inactive) | GI50 (HOP-92): 54.5 µM (inactive) | GI50 (HT-29): 74.6 µM (inactive) | GI50 (Hs-578T): > 100 µM (inactive) | GI50 (IGROV-1): > 100 µM (inactive) | GI50 (KM12): > 100 µM (inactive) | GI50 (LOX IMVI): 23.4 µM (inactive) | GI50 (M14): 50.6 µM (inactive) | GI50 (MCF7): 63.1 µM (inactive) | GI50 (MDA-MB-231): > 100 µM (inactive) | GI50 (MDA-MB-435): > 100 µM (inactive) | GI50 (MDA-N): 35.6 µM (inactive) | GI50 (MOLT-4): 0.424 µM (active) | GI50 (NCI-H226): > 100 µM (inactive) | GI50 (NCI-H23): 60 µM (inactive) | GI50 (NCI-H460): 56.4 µM (inactive) | GI50 (NCI-H522): > 100 µM (inactive) | GI50 (NCI/ADR-RES): > 100 µM (inactive) | GI50 (OVCAR-3): > 100 µM (inactive) | GI50 (OVCAR-4): > 100 µM (inactive) | GI50 (OVCAR-5): > 100 µM (inactive) | GI50 (OVCAR-8): > 100 µM (inactive) | GI50 (PC-3): 52.2 µM (inactive) | GI50 (RPMI-8226): 11.1 µM (inactive) | GI50 (RXF 393): 82.6 µM (inactive) | GI50 (SF-268): > 100 µM (inactive) | GI50 (SF-295): 57.5 µM (inactive) | GI50 (SF-539): > 100 µM (inactive) | GI50 (SK-MEL-28): 89.3 µM (inactive) | GI50 (SK-MEL-2): > 100 µM (inactive) | GI50 (SK-MEL-5): 37.6 µM (inactive) | GI50 (SK-OV-3): > 100 µM (inactive) | GI50 (SN12C): 82.8 µM (inactive) | GI50 (SNB-19): > 100 µM (inactive) | GI50 (SNB-75): 91.4 µM (inactive) | GI50 (SR): 0.192 µM (active) | GI50 (SW-620): 84.7 µM (inactive) | GI50 (T47D): 65.6 µM (inactive) | GI50 (TK-10): 37.4 µM (inactive) | GI50 (U-251): 91.8 µM (inactive) | GI50 (UACC-257): 31.1 µM (inactive) | GI50 (UACC-62): 51.4 µM (inactive) | GI50 (UO-31): 59.2 µM (inactive)
